Assay results: ChEMBL document CHEMBL1135656, “Molecular docking and 3D-QSAR studies on gag peptide analogue inhibitors interacting with human cyclophilin A” (J Med Chem, 2002)
pIC50: −log10 of the molar value. Starred links: 1 amine or outer side, 2 acyl side, 3 side chain; linkers in the order of their positions; H or OH if unused. Non-standard residues stand in square brackets, D forms with d. Residues, ends and D or L forms follow the SMILES beside them. *: point of attachment. Desaminohistidyl = O=C(CCc1c[nH]cn1)*; X1 = c1ccc(C(CCN*)c2ccccc2)cc1; NHPhenethyl = c1ccc(CCN*)cc1; X2 = O=C(C1CCCC1N[*:1])[*:2]; Isovaleryl = CC(C)CC(=O)*; NHBn = c1ccc(CN*)cc1

These molecules were tested against Peptidyl-prolyl cis-trans isomerase A (Homo sapiens, UniProt P62937) (assay: In vitro inhibition of human Cyclophilin A/protein interaction.).
Sequence of Peptidyl-prolyl cis-trans isomerase A (P62937 whole entry): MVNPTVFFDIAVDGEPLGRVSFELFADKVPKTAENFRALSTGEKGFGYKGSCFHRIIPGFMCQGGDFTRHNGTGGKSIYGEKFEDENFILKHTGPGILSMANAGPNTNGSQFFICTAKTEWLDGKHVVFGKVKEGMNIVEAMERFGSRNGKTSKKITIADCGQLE

Q: `CC(=O)N[C@H](C(=O)N[C@@H](Cc1c[nH]cn1)C(=O)N[C@@H](C)C(=O)NCC(=O)N1CCC[C@@H]1C(=O)N[C@@H](C(=O)N[C@@H](C)C(N)=O)c1ccccc1)C(C)C` was tested. Which pIC50 did it give?
A: The pIC50 was 3.09.

Q: `CC(=O)N[C@H](C(=O)N[C@@H](Cc1c[nH]cn1)C(=O)N[C@@H](C)C(=O)NCC(=O)N1CCC[C@@H]1C(=O)N[C@H](C(=O)N[C@@H](C)C(N)=O)c1ccccc1)C(C)C` was tested. Which pIC50 did it give?
A: The pIC50 was 3.01.

Q: `CC[C@H](C)[C@H](NC(=O)[C@@H]1CCCN1C(=O)CNC(=O)[C@H](C)NC(=O)[C@H](Cc1c[nH]cn1)NC(=O)[C@@H](NC(C)=O)C(C)C)C(=O)NCCc1ccccc1` (Ac-VHAGPI-NHPhenethyl) was tested. Which pIC50 did it give?
A: The pIC50 was 3.49.

Q: `CC[C@H](C)[C@H](NC(=O)[C@@H]1CCCN1C(=O)CNC(=O)[C@H](C)NC(=O)[C@H](Cc1cnc[nH]1)NC(=O)[C@@H](NC(C)=O)C(C)C)C(=O)NCCC(c1ccccc1)c1ccccc1` (Ac-VHAGPI-X1) was tested. Which pIC50 did it give?
A: The pIC50 was 3.44.

Q: With `CC(=O)N[C@H](C(=O)N[C@@H](Cc1c[nH]cn1)C(=O)N[C@@H](C)C(=O)NCC(=O)N1CCC[C@H]1C(=O)NC1CCCC1C(=O)N[C@@H](C)C(N)=O)C(C)C` (some centres undefined) (Ac-VHAGP[X2]A-NH2) as the molecule, how does the pIC50 read?
A: Its pIC50 is 3.17.

Q: With `CC[C@H](C)[C@H](NC(=O)[C@@H]1CCCN1C(=O)CNC(=O)[C@H](C)NC(=O)CCc1cnc[nH]1)C(=O)N[C@@H](C)C(N)=O` (Desaminohistidyl-AGPIA-NH2) as the molecule, how does the pIC50 read?
A: The pIC50 was 2.59.

Q: `CC[C@H](C)[C@H](NC(=O)[C@@H]1CCCN1C(=O)CNC(=O)[C@H](C)NC(=O)[C@H](Cc1cnc[nH]1)NC(=O)CC(C)C)C(=O)N[C@@H](C)C(N)=O` (Isovaleryl-HAGPIA-NH2) was tested. Which pIC50 did it give?
A: Its pIC50 is 3.78.

Q: With `CC(C)CC(=O)N[C@@H](Cc1cnc[nH]1)C(=O)N[C@@H](C)C(=O)NCC(=O)N1CCC[C@H]1C(=O)NC1CCCC1C(=O)NCc1ccccc1` (some centres undefined) (Isovaleryl-HAGP[X2]-NHBn) as the molecule, how does the pIC50 read?
A: Its pIC50 is 4.05.

Q: With H-HAGPIA-OH as the molecule, how does the pIC50 read?
A: Its pIC50 is 2.70.
